Measured values as given in ChEMBL document CHEMBL5705887, “Distinct concentration-dependent effects of the polo-like kinase 1-specific inhibitor GSK461364A, including differential effect on apoptosis” (Cancer Res, 2009).
The source made the active and inactive calls. The calls are words filed in the database; no cut-off is given here.

Columns and labels:
BXPC-3 = assay: Antiproliferative activity against human BXPC-3 cells assessed as viable cell signal at maximum growth inhibition incubated for 72 hrs by celltiter-glo assay relative to control; format: functional
MDA-MB-231 = assay: Antiproliferative activity against human MDA-MB-231 cells assessed as viable cell signal at maximum growth inhibition incubated for 72 hrs by celltiter-glo assay relative to control; format: functional
ZR-75-1 [1] = assay: Growth inhibition of human ZR-75-1 cells assessed as viable cells at 250 nmol/L measured immediately by celltiter-glo assay; format: functional; conditions: read-out: Activity
SJSA-1 = assay: Antiproliferative activity against human SJSA-1 cells assessed as of viable cell signal at minimum maximum cell growth incubated for 72 hrs by celltiter-glo assay relative to control; format: functional
HT-1080 = assay: Antiproliferative activity against human HT-1080 cells assessed as viable cell signal at maximum growth inhibition incubated for 72 hrs by celltiter-glo assay relative to control; format: functional
HCT-116 [2] = assay: Antiproliferative activity against human HCT-116 cells assessed as viable cell signal at maximum growth inhibition incubated for 72 hrs by celltiter-glo assay relative to control; format: functional
BT-549 = assay: Antiproliferative activity against human BT-549 cells assessed as of viable cell signal at minimum maximum cell growth incubated for 72 hrs by celltiter-glo assay relative to control; format: functional
[3] = target: Serine/threonine-protein kinase BRSK2 (Homo sapiens) (UniProt Q8IWQ3); assay: Inhibition of full length N-terminal his6-tagged recombinant human BRSK2 expressed in baculovirus Sf21 cells at 10 uM relative to control
Serine/threonine-protein kinase BRSK2 (Homo sapiens), sequence (Q8IWQ3 whole entry): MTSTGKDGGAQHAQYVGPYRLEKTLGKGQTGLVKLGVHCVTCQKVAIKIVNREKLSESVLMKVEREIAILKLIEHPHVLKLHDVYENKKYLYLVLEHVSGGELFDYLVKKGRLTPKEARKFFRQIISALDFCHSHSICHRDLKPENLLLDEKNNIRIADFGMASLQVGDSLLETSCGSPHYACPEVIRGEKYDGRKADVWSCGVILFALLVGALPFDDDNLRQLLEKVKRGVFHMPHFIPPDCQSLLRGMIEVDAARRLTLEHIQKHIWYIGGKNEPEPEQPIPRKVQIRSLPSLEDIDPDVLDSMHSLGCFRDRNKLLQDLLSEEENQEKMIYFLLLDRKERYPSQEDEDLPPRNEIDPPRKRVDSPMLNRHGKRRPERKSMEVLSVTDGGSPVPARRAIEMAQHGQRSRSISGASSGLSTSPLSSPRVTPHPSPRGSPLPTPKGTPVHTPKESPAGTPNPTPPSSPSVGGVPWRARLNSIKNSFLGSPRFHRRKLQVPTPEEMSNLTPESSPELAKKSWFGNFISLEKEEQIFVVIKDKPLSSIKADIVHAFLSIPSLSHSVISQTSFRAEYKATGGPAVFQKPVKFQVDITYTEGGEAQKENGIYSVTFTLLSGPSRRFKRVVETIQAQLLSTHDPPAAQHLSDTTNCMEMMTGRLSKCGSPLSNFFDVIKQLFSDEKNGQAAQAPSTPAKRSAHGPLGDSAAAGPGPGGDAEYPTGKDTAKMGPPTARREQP

NCI-H727 = assay: Antiproliferative activity against human NCI-H727 cells assessed as viable cell signal at maximum growth inhibition incubated for 72 hrs by celltiter-glo assay relative to control; format: functional
Calu-3 = assay: Antiproliferative activity against human Calu-3 cells assessed as viable cell signal at maximum growth inhibition incubated for 72 hrs by celltiter-glo assay relative to control; format: functional
OVCAR-8 = assay: Antiproliferative activity against human OVCAR-8 cells assessed as of viable cell signal at minimum maximum cell growth incubated for 72 hrs by celltiter-glo assay relative to control; format: functional
T-24 = assay: Antiproliferative activity against human T24 cells assessed as growth inhibition incubated for 72 hrs by celltiter-glo assay; format: functional
[4] = Antiproliferative activity against human A375P cells assessed as growth inhibition incubated for 72 hrs by celltiter-glo assay; format: functional
MCF7 = assay: Antiproliferative activity against human MCF7 cells assessed as growth inhibition incubated for 72 hrs by celltiter-glo assay; format: functional
DU-145 = assay: Antiproliferative activity against human DU-145 cells assessed as growth inhibition incubated for 72 hrs by celltiter-glo assay; format: functional
ZR-75-1 [5] = assay: Antiproliferative activity against human ZR-75-1 cells assessed as growth inhibition at > 250 nmol/L incubated for 72 hrs by celltiter-glo assay; format: functional, cell-based
MDA-MB-468 = assay: Antiproliferative activity against human MDA-MB-468 cells assessed as of viable cell signal at minimum maximum cell growth incubated for 72 hrs by celltiter-glo assay relative to control; format: functional
RKO = assay: Antiproliferative activity against human RKO cells assessed as of viable cell signal at minimum maximum cell growth incubated for 72 hrs by celltiter-glo assay relative to control; format: functional
HCT-116 [6] = assay: Antiproliferative activity against human HCT-116 cells assessed as growth inhibition incubated for 72 hrs by celltiter-glo assay; format: functional
PANC-1 = assay: Antiproliferative activity against human PANC-1 cells assessed as of viable cell signal at minimum maximum cell growth incubated for 72 hrs by celltiter-glo assay relative to control; format: functional
MIA PaCa-2 = assay: Antiproliferative activity against human MIA PaCa-2 cells assessed as viable cell signal at maximum growth inhibition incubated for 72 hrs by celltiter-glo assay relative to control; format: functional
HCC1954 [7] = assay: Antiproliferative activity against human HCC1954 cells assessed as viable cell signal at maximum growth inhibition incubated for 72 hrs by celltiter-glo assay relative to control; format: functional
SAOS-2 = assay: Antiproliferative activity against human SAOS-2 cells assessed as growth inhibition incubated for 72 hrs by celltiter-glo assay; format: functional
T47D = assay: Antiproliferative activity against human T47D cells assessed as of viable cell signal at minimum maximum cell growth incubated for 72 hrs by celltiter-glo assay relative to control; format: functional
A498 = assay: Antiproliferative activity against human A498 cells assessed as of viable cell signal at minimum maximum cell growth incubated for 72 hrs by celltiter-glo assay relative to control; format: functional
HCC1954 [8] = assay: Antiproliferative activity against human HCC1954 cells assessed as growth inhibition incubated for 72 hrs by celltiter-glo assay; format: functional
SK-MEL-2 = assay: Antiproliferative activity against human SK-MEL-2 cells assessed as viable cell signal at maximum growth inhibition incubated for 72 hrs by celltiter-glo assay relative to control; format: functional
HT-29 [9] = assay: Antiproliferative activity against human HT-29 cells assessed as of viable cell signal at minimum maximum cell growth incubated for 72 hrs by celltiter-glo assay relative to control; format: functional
COLO 205 [10] = assay: Antitumor activity against human COLO 205 cells xenografted in ip dosed Nude mouse assessed as increase in pIk1 level measured at 24 to 48 hrs by […]; format: functional, organism-based; conditions: dose 50-100 mg/kg, time 24-48 hrs
NCI-N87 = assay: Antiproliferative activity against human NCI-N87 cells assessed as viable cell signal at maximum growth inhibition incubated for 72 hrs by celltiter-glo assay relative to control; format: functional
COLO 205 [11] = assay: Antitumor activity against human COLO 205 cells xenografted in Nude mouse assessed as tumor growth delay time at 50 mg/kg, ip administered for 12 days; format: functional; conditions: time 12 day
PANC-08-13 = assay: Antiproliferative activity against human PANC-08-13 cells assessed as growth inhibition incubated for 72 hrs by celltiter-glo assay; format: functional
[12] = target: Serine/threonine-protein kinase WNK3 (Homo sapiens) (UniProt Q9BYP7); assay: Inhibition of N-terminal his6-tagged recombinant human WNK3 (1 to 434 residues) expressed in baculovirus Sf21 insect cells at 10 uM relative to control
Serine/threonine-protein kinase WNK3 (Homo sapiens), sequence (Q9BYP7 whole entry, the tested form may be a part): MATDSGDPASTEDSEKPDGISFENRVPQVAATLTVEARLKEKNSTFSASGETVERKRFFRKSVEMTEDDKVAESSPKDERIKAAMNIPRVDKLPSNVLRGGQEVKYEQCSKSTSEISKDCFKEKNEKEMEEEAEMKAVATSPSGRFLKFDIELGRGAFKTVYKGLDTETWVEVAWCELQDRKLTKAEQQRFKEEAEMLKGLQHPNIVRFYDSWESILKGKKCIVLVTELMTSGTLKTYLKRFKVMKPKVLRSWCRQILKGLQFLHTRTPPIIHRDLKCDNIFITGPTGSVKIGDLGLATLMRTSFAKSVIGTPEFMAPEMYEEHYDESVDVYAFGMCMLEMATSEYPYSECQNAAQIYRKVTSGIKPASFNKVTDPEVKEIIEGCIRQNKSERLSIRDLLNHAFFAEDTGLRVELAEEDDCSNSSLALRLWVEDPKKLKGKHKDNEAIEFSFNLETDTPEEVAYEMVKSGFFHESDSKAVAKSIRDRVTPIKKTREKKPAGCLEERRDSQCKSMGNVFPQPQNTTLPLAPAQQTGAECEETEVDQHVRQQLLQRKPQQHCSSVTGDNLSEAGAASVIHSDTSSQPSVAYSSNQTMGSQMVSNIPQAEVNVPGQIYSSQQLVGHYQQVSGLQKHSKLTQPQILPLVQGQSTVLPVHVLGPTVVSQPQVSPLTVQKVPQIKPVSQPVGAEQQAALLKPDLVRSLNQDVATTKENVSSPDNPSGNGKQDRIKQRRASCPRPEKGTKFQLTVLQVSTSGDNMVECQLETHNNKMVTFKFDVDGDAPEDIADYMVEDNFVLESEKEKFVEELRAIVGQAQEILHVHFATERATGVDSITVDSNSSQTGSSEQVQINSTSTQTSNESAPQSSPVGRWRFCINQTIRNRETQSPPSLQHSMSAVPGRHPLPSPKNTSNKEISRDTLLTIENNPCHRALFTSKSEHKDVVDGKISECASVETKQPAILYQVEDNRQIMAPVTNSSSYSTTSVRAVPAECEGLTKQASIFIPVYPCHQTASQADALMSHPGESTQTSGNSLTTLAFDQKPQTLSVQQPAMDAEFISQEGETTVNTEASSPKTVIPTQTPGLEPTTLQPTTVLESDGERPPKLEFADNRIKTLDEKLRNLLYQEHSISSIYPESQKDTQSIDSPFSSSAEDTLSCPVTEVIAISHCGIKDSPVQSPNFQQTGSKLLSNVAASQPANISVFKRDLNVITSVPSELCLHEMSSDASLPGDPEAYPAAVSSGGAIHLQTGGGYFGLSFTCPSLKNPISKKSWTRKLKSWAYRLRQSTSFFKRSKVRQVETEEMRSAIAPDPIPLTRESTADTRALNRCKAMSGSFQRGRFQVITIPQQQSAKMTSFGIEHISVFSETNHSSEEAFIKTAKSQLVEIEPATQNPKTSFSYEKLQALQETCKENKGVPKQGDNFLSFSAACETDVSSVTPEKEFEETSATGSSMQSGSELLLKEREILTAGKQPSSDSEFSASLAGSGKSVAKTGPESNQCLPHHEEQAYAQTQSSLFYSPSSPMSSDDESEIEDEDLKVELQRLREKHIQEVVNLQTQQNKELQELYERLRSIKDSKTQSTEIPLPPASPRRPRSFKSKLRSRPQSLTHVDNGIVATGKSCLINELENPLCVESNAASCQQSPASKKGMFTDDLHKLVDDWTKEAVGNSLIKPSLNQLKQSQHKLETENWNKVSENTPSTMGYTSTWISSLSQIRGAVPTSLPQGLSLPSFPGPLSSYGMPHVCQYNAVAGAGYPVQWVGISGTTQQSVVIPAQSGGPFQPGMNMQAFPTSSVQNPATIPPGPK

[13] = target: NUAK family SNF1-like kinase 1 (Homo sapiens) (UniProt O60285); assay: Inhibition of full length N-terminal his6-tagged recombinant human ARK5 (2 to end residues) expressed in baculovirus Sf21 cells at 10 uM relative to control
NUAK family SNF1-like kinase 1 (Homo sapiens), sequence (O60285 whole entry): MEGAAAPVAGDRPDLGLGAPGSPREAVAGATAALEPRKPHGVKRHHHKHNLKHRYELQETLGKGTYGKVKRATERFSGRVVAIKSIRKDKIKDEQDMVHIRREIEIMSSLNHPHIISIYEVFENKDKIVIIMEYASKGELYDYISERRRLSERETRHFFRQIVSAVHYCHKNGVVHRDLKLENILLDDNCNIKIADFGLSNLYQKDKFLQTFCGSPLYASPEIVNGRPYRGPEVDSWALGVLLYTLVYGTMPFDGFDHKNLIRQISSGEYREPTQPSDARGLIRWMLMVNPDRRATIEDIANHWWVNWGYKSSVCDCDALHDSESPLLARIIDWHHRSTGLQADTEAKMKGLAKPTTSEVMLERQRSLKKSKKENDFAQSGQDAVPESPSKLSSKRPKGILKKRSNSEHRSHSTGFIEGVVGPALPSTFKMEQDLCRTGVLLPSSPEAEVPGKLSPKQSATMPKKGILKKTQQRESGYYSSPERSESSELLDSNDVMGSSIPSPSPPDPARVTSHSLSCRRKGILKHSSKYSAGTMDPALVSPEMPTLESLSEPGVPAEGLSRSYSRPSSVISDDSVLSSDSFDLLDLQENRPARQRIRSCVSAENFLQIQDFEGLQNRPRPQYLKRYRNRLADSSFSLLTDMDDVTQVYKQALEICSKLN

BT-474 = assay: Antiproliferative activity against human BT-474 cells assessed as growth inhibition incubated for 72 hrs by celltiter-glo assay; format: functional
HCC1937 = assay: Antiproliferative activity against human HCC1937 cells assessed as growth inhibition incubated for 72 hrs by celltiter-glo assay; format: functional
HT-29 [14] = assay: Induction of mitotic arrest in human HT-29 cells assessed as effect on pHH3 level at 10 to 250 nmol/L incubated for 19 hrs by ELISA analysis; format: functional, cell-based; conditions: dose 10-250 nmol/L
ZR-75-1 [15] = assay: Antiproliferative activity against human ZR-75-1 cells assessed as viable cell signal at maximum growth inhibition incubated for 72 hrs by celltiter-glo assay relative to control; format: functional
SW480 = assay: Antiproliferative activity against human SW480 cells assessed as growth inhibition incubated for 72 hrs by celltiter-glo assay; format: functional

Q: With `C[C@@H](Oc1cc(-n2cnc3ccc(CN4CCN(C)CC4)cc32)sc1C(N)=O)c1ccccc1C(F)(F)F` [GSK-461364] as the molecule, how does the Emax (BXPC-3) read?
A: Its Emax is 278%.

Q: And the Emax (MDA-MB-231)?
A: The Emax was 520%.

Q: What about the viability at 0.25 µM (ZR-75-1 [1]) of the same molecule?
A: The viability at 0.25 µM was 200%.

Q: And the Emin (SJSA-1)?
A: Its Emin is 123.8%.

Q: What about the Emax (HT-1080) of the same molecule?
A: The Emax was 223%.

Q: What about the Emax (HCT-116 [2]) of the same molecule?
A: The Emax was 545%.

Q: And the Emin (BT-549)?
A: The Emin was 77.2%.

Q: And the inhibition [3]?
A: The inhibition was 79%.

Q: What about the Emax (NCI-H727) of the same molecule?
A: The Emax was 262%.

Q: What about the Emax (Calu-3) of the same molecule?
A: The Emax was 190%.

Q: What about the Emin (OVCAR-8) of the same molecule?
A: The Emin was 46.5%.

Q: What about the GI50 (T-24) of the same molecule?
A: The GI50 was 42.3 nM.

Q: And the GI50 [4]?
A: The GI50 was 23.6 nM.

Q: And the GI50 (MCF7)?
A: The GI50 was 6.4 nM.

Q: And the GI50 (DU-145)?
A: Its GI50 is 24.2 nM.

Q: What about the Activity (ZR-75-1 [5]) of the same molecule?
A: The Activity was “Active”.

Q: And the Emin (MDA-MB-468)?
A: Its Emin is 182.2%.

Q: What about the Emin (RKO) of the same molecule?
A: The Emin was 218%.

Q: And the GI50 (HCT-116 [6])?
A: The GI50 was 50.5 nM.

Q: What about the Emin (PANC-1) of the same molecule?
A: The Emin was 114.1%.

Q: What about the Emax (MIA PaCa-2) of the same molecule?
A: The Emax was 580%.

Q: What about the Emax (HCC1954 [7]) of the same molecule?
A: Its Emax is 280%.

Q: What about the GI50 (SAOS-2) of the same molecule?
A: The GI50 was 14.2 nM.

Q: What about the Emin (T47D) of the same molecule?
A: Its Emin is 205%.

Q: What about the Emin (A498) of the same molecule?
A: Its Emin is 243.2%.

Q: What about the GI50 (HCC1954 [8]) of the same molecule?
A: The GI50 was 14.1 nM.

Q: And the Emax (SK-MEL-2)?
A: Its Emax is 422%.

Q: What about the Emin (HT-29 [9]) of the same molecule?
A: Its Emin is 327.7%.

Q: What about the Activity (COLO 205 [10]) of the same molecule?
A: Its Activity is “Dose-Dependent Effect”.

Q: What about the Emax (NCI-N87) of the same molecule?
A: The Emax was 776%.

Q: What about the Time (COLO 205 [11]) of the same molecule?
A: The Time was 62 days.

Q: And the GI50 (PANC-08-13)?
A: The GI50 was 18.9 nM.

Q: And the inhibition [12]?
A: The inhibition was 68%.

Q: What about the inhibition [13] of the same molecule?
A: The inhibition was 79%.

Q: What about the GI50 (BT-474) of the same molecule?
A: The GI50 was 7090 nM.

Q: And the GI50 (HCC1937)?
A: The GI50 was 4790 nM.

Q: And the Activity (HT-29 [14])?
A: The Activity was “Active”.

Q: What about the Emax (ZR-75-1 [15]) of the same molecule?
A: The Emax was 229%.

Q: What about the GI50 (SW480) of the same molecule?
A: The GI50 was 130 nM.
